IC50 data for 24 compounds are collected here from the Kinase Knowledgebase extract (Sharma et al. 2016).

In the assay the target is EGFR (human) (UniProt P00533).
Chain of EGFR (human) (P00533 whole entry, looked up): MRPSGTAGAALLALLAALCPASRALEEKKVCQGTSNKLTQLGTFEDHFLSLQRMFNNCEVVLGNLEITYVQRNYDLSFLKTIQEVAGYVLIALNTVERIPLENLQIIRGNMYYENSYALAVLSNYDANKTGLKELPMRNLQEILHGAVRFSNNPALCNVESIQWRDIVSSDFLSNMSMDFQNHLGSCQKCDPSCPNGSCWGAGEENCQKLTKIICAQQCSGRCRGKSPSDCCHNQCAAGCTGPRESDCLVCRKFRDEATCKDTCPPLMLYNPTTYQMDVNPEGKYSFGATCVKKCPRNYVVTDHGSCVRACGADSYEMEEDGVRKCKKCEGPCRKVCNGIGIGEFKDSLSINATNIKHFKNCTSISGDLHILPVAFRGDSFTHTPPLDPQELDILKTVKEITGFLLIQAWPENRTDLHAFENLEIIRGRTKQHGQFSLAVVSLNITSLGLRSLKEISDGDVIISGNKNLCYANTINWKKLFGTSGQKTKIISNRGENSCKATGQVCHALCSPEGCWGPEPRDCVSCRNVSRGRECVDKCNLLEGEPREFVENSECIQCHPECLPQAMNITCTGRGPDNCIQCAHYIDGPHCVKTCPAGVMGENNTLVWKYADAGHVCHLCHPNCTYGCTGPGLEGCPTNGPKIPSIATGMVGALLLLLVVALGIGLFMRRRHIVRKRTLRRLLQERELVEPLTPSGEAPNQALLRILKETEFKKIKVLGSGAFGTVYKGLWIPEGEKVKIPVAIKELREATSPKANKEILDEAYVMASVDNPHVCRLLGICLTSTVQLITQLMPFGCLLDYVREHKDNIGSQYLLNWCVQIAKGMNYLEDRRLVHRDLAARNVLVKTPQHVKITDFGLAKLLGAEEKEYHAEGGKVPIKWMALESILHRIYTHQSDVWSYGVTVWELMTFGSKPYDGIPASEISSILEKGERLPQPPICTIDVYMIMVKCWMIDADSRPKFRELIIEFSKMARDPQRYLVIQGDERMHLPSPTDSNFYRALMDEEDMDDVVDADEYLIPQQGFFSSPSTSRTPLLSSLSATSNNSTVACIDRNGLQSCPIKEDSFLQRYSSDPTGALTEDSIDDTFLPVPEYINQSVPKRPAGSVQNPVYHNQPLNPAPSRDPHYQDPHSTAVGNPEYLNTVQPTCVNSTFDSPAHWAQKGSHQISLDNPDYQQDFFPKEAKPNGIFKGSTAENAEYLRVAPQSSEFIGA

For `N#C/C(C(=O)Nc1ccccc1)=C(\O)c1ccc(O)c(O)c1`, the IC50 was 960 nM.
As for `COc1cc(/C=C(\C#N)C(=O)Nc2cccc(Cl)c2)cc([N+](=O)[O-])c1O`, the IC50 stood at 1800 nM.
In the case of `N#C/C(=C\c1cc(O)c(O)c(F)c1)C(=O)Nc1cccc(Cl)c1`, the 50% inhibitory concentration (IC50) amounted to 600 nM. This IC50 is about 3-fold lower than that of the compound before.
For the compound `Cc1cc(/C=C(\C#N)C(=O)Nc2cccc(Cl)c2)cc(O)c1O`, the IC50 turned out to be 1300 nM.
`N#C/C(=C\c1cc(O)c(O)c(Cl)c1)C(=O)Nc1cccc(Cl)c1`: the IC50 stood at 680 nM.
Under `Cc1cc(/C=C(\C#N)C(=O)Nc2cccc(Cl)c2)cc(C)c1O` stands 900 nM; under `N#C/C(=C\c1cc(O)c(O)c(Br)c1Br)C(=O)Nc1cccc(Cl)c1`, 280 nM.
Under `N#C/C(=C\c1cc(O)c(O)c(C#N)c1)C(=O)Nc1cccc(Cl)c1` stands 1000 nM; under `COc1cc(/C=C(\C#N)C(=O)Nc2ccccc2)cc(Cl)c1O`, 1600 nM.
Turning to `COc1cc(/C=C(\C#N)C(=O)Nc2cccc(Cl)c2)cc(Br)c1O`, the IC50 came to 1400 nM.
In the case of `COc1cc(/C=C(\C#N)C(=O)Nc2ccccc2)cc(Br)c1O` it was 1800 nM; in that of `COc1cc(/C=C(\C#N)C(=O)Nc2cccc(Cl)c2)cc(S(C)(=O)=O)c1O`, 1400 nM.
In the case of `N#C/C(=C\c1ccc(O)c(O)c1)C(=O)Nc1cccc(Cl)c1` it was 1400 nM; in that of `COc1cc(/C=C(\C#N)C(=O)Nc2cccc(Cl)c2)cc(Cl)c1O`, 680 nM; in that of `Cc1cccc(NC(=O)/C(C#N)=C/c2ccc(O)c(O)c2)c1`, 2100 nM.
As to `N#C/C(=C\c1cc(O)c(O)cc1[N+](=O)[O-])C(=O)Nc1cccc(Cl)c1`, the IC50 turned out to be 280 nM.
As for `N#C/C(=C\c1cc(O)c(O)c(C(F)(F)F)c1)C(=O)Nc1cccc(Cl)c1`, the IC50 was found to be 2300 nM.
The compound `COc1cc(/C=C(\C#N)C(=O)Nc2cccc(Cl)c2)ccc1O` came in with an IC50 of 2100 nM.
Compound `COc1cc(/C=C(\C#N)C(=O)Nc2cccc(Cl)c2)cc(C)c1O` showed an IC50 of 420 nM.
Under `N#C/C(=C\c1cc(O)c(O)c(Br)c1)C(=O)Nc1cccc(Cl)c1` stands 490 nM.
Compound `CCOc1cc(/C=C(\C#N)C(N)=O)cc(CSc2ccccc2)c1O` returned a 50% inhibitory concentration (IC50) of 2600 nM.
The compound `N#C/C(=C\c1cc(Br)c(O)c(Br)c1)C(=O)Nc1cccc(Cl)c1` had an IC50 of 1100 nM. This IC50 is about 2.4-fold lower than that of the compound before.
Under `N#C/C(=C\c1cc(O)c(O)c(Cl)c1)C(=O)Nc1ccccc1` stands 1200 nM; under `COc1cc(/C=C(\C#N)C(=O)Nc2cccc(Cl)c2)cc(F)c1O`, 1600 nM.

In general, IC50 refers to the point on the concentration scale where inhibition reaches its midpoint. Read a low IC50 as inhibition by little substance.
